Tested on: inflammation induced by the implant
Assay: Expression of inflammation-related genes in sciatic nerve and surrounding muscle tissue after implant
Format: in vivo, rodent
Settings: release of bupivacaine from the implant
Excerpt: FIG. 13A, FIG. 13B, FIG. 13C, FIG. 13D, and FIG. 13E show the expression of genes related to inflammation in sciatic nerve tissue: TNF-α (FIG. 13A); IL-1β (FIG. 13B); IL-6 (FIG. 13C); PTGS2 (COX-2) (FIG. 13D); and NOS2 (FIG. 13E); respectively; FIG. 14A, FIG. 14B, FIG. 14C, FIG. 14D, and FIG. 14E show the expression of genes related to inflammation in surrounding muscle tissue: COX-2 expression (FIG. 14A); IL-6 expression (FIG. 14B); TNF-α expression (FIG. 14C); IL-1β expression (FIG. 14D); and iNOS expression (FIG. 14E);

For CCCCN1CCCCC1C(=O)Nc1c(C)cccc1C (stereo not shown) [bupivacaine], the “inflammation induced by the implant” value was “decreased the inflammation induced by the implant”.

From patent US20180361032A1, “IMPLANTABLE ELECTROSPUN PATCHES FOR SITE-DIRECTED DRUG DELIVERY” (The Methodist Hospital, priority 2016, published 2018)
